pIC50: −log10 of the molar value. Values after ≈ are worked out from the molar mass of the structure shown. Where two headings read alike, the source gives them in different places.
Columns and labels:
HaCaT keratinocytes = tested on: HaCaT keratinocytes; set-up: method as in PMID 34500657; conditions: cited from earlier work
glioblastoma U251 cells = tested on: glioblastoma U251 cells; set-up: method as in PMID 18558490; conditions: U251, 72 h, cited from earlier work; for IC50: recalculated from µM by the authors; for pIC50: read-out: IC50
A172 = tested on: A172; set-up: method as in PMID 34959693; conditions: cited from earlier work
T98G = tested on: T98G; set-up: method as in PMID 34959693; conditions: cited from earlier work
8505C = experiment: MTT viability assay, 8505C anaplastic thyroid carcinoma cells; type: cell-based, human; conditions: for Cell viability: 24 h; for IC50: Homo sapiens
Source text: (§1) Cell lines of different origins were used in the study and grouped as follows: prostate panel (human prostate carcinomas: DU145, derived from metastatic site: brain; grade IV PC3, derived from metastatic site: bone; LNCaP, derived from the metastatic site: lymph node; prostate epithelial, PNT2), colon panel (colorectal adenocarcinomas: HT29, originating from a primary tumor; Duke’s type C DLD-1, with the potential to lymph node metastasis; highly metastatic HCT116; colon epithelial cells CCD 841 CoN), thyroid panel (follicular thyroid carcinoma FTC133, anaplastic thyroid carcinoma 8505C, papillary thyroid carcinoma TPC-1, normal thyroid follicular epithelial Nthy-ori 3–1), breast panel (ER-positive breast adenocarcinoma MCF7, ER-negative breast adenocarcinoma MDA-MB-231, breast epithelial MCF10A), brain panel (neuroblastoma SH-SY5Y, glioblastoma U-87 MG, murine astrocytes C8D1A). All cell lines were purchased from Merck (Darmstadt, Germany).
(§2) Cells were grown under standard conditions (37 °C, 5% CO2) and culture media (DMEM/F12 for PNT2, PC3, FTC133, 8505 C, MDA-MB-231, TPC-1; DMEM Low Glucose for DU145; DMEM High Glucose for HCT116, DLD-1, SH-SY5Y, U87MG, C8D1A; MEM with NEAA for MCF7; MEM for CCD 841 CoN; McCoy’s for HT29; RPMI1640 with sodium pyruvate for LNCaP; DMEM/F12 with 20 ng/mL epidermal growth factor (EGF), 10 μg/mL insulin, 0.5 μg/mL hydrocortisone, 100 ng/mL cholera toxin) for MCF10A), supplemented with 10% fetal bovine serum (FBS) or 5% donor horse serum for MCF10A, and 1% antibiotics solution (10,000 U penicillin and 10 mg streptomycin/mL). The tested substances were prepared as 10 mg/mL stock solutions in DMSO and further diluted in the culture media to the working concentrations. Cells were treated with UA enantiomers at the concentration range of 0–50 µg/mL. The influence of DMSO on cell viability was also examined, with the final concentration […], and no toxic effect was noted.
(§3) The cells were seeded onto 96-well plates at a density of 1.5 × 10^4 cells/well. After 24 h UA enantiomers were added. Cell viability was determined after 24, 48, and 72 h by the MTT assay, as described previously. Doxorubicin was used as a reference cytostatic drug. All analyses were performed in triplicate; cell viability was expressed as % of control, untreated cells (mean ± SD), and IC50 values (concentration at which cell viability is inhibited by 50%), if possible.

DU145 = experiment: MTT viability assay, DU145 prostate cancer cells; type: cell-based, human; conditions: for Cell viability: DU145, 24 h; for IC50: Homo sapiens, DU-145
Source text: as §1, §2, §3
The selectivity index (SI) was calculated, if possible, by dividing the IC50 value obtained for non-cancerous cells line by the IC50 values obtained for appropriate cancer cell line, as described previously. […] The values above 3 indicate good selectivity.

LNCaP cells = tested on: LNCaP cells; set-up: method as in PMID 30101414; conditions: 48 h, cited from earlier work
[1] = tested on: SH-SY5Y neuroblastoma cells; conditions: cited from earlier work
HTB140 cells = tested on: HTB140 cells; set-up: method as in PMID 34577645; conditions: HTB140, 48 h (implied); cited from earlier work
U87MG cells = conditions: cited from earlier work; for CC50: 24 h
DLD1 cells = conditions: DLD1, 48 h, cited from earlier work
MDA-MB-231 cells = conditions: cited from earlier work; for IC50: recalculated from µM by the authors; for pIC50: read-out: IC50
HCT116 cells = conditions: cited from earlier work; for IC50: recalculated from µM by the authors; for pIC50: read-out: IC50
A375 cells = tested on: A375 cells; set-up: method as in PMID 34577645; conditions: A375, 48 h; cited from earlier work
[2] = recalculated from µM by the authors

CC(=O)C1=C(O)C=C2Oc3c(C(C)=O)c(O)c(C)c(O)c3[C@]2(C)C1=O [UA(−), (−)-usnic acid]
IC50 (HaCaT keratinocytes; 48 h): 80.82 µg/mL (≈ 235 µM)
IC50 (HaCaT keratinocytes; 72 h): 70.12 µg/mL (≈ 204 µM)
IC50 (glioblastoma U251 cells): 6.8 µg/mL
pIC50 (glioblastoma U251 cells): 4.71
IC50 (A172): 31.5 µg/mL (≈ 91.5 µM)
IC50 (T98G): 13 µg/mL (≈ 37.8 µM)
Cell viability (8505C; 2.5 µg/mL): 105.18 % of control
Cell viability (8505C; 5 µg/mL): 107.97 % of control
Cell viability (8505C; 10 µg/mL): 100.80 % of control
Cell viability (8505C; 20 µg/mL): 100.00 % of control
Cell viability (8505C; 30 µg/mL): 102.79 % of control
Cell viability (8505C; 40 µg/mL): 103.98 % of control
Cell viability (8505C; 50 µg/mL): 94.42 % of control
IC50 (8505C; 48 h): > 50 µg/mL
IC50 (8505C; 72 h): > 50 µg/mL
Cell viability (DU145; 2.5 µg/mL): 99.84 % of control
Cell viability (DU145; 5 µg/mL): 89.03 % of control
Cell viability (DU145; 10 µg/mL): 82.15 % of control
Cell viability (DU145; 20 µg/mL): 77.63 % of control
Cell viability (DU145; 30 µg/mL): 68.28 % of control
Cell viability (DU145; 40 µg/mL): 64.95 % of control
Cell viability (DU145; 50 µg/mL): 65.86 % of control
IC50 (DU145; DU145, 48 h): 34.8 µg/mL (≈ 101 µM)
IC50 (DU145; DU145, 72 h): 18.6 µg/mL (≈ 54 µM)
selectivity index (SI) (DU145; IC50 PNT2 / IC50 DU145, 48 h): 1.02
selectivity index (SI) (DU145; IC50 PNT2 / IC50 DU145, 72 h): 1.49

CC(=O)C1=C(O)C=C2Oc3c(C(C)=O)c(O)c(C)c(O)c3[C@@]2(C)C1=O [UA(+), (+)-usnic acid]
pIC50 (LNCaP cells; read-out: IC50): 4.11
IC50 (LNCaP cells; [2]): 26.7 µg/mL
IC50 (glioblastoma U251 cells): 6.7 µg/mL
pIC50 (glioblastoma U251 cells): 4.71
Cell viability ([1]; at 2 µg/mL): 42%
Cell viability ([1]; at 10 µg/mL): 57%
IC50 (HTB140 cells): 14.72 µg/mL (≈ 42.8 µM)
CC50 (U87MG cells; read-out: CC50): 47 µM
CC50 (U87MG cells; [2]): 16 µg/mL
IC50 (U87MG cells; 48 h): 41.5 µg/mL (≈ 121 µM)
IC50 (DLD1 cells; [2]): 34.4 µg/mL
pIC50 (DLD1 cells; read-out: IC50): 4.00
Cell viability (8505C; 2.5 µg/mL): 102.52 % of control
Cell viability (8505C; 5 µg/mL): 103.05 % of control
Cell viability (8505C; 10 µg/mL): 98.80 % of control
Cell viability (8505C; 20 µg/mL): 102.26 % of control
Cell viability (8505C; 30 µg/mL): 99.47 % of control
Cell viability (8505C; 40 µg/mL): 102.26 % of control
Cell viability (8505C; 50 µg/mL): 108.63 % of control
IC50 (8505C; 48 h): > 50 µg/mL
IC50 (8505C; 72 h): > 50 µg/mL
IC50 (MDA-MB-231 cells; MDA-MB-231, 24 h): 13.23 µg/mL
pIC50 (MDA-MB-231 cells; MDA-MB-231, 24 h): 4.42
IC50 (MDA-MB-231 cells; MDA-MB-231, 72 h): 4.5 µg/mL
pIC50 (MDA-MB-231 cells; MDA-MB-231, 72 h): 4.88
IC50 (HCT116 cells; HCT116, 48 h): 34.4 µg/mL
pIC50 (HCT116 cells; HCT116, 48 h): 4.00
IC50 (HCT116 cells; HCT116, 72 h): 49.24 µg/mL
pIC50 (HCT116 cells; HCT116, 72 h): 3.84
IC50 (A375 cells): 11.84 µg/mL (≈ 34.4 µM)
Cell viability (DU145; 2.5 µg/mL): 102.26 % of control
Cell viability (DU145; 5 µg/mL): 94.38 % of control
Cell viability (DU145; 10 µg/mL): 86.92 % of control
Cell viability (DU145; 20 µg/mL): 87.54 % of control
Cell viability (DU145; 30 µg/mL): 72.41 % of control
Cell viability (DU145; 40 µg/mL): 68.15 % of control
Cell viability (DU145; 50 µg/mL): 67.13 % of control
IC50 (DU145; DU145, 48 h): 11.5 µg/mL (≈ 33.4 µM)
IC50 (DU145; DU145, 72 h): 12.1 µg/mL (≈ 35.1 µM)
selectivity index (SI) (DU145; IC50 PNT2 / IC50 DU145, 48 h): 3.25
selectivity index (SI) (DU145; IC50 PNT2 / IC50 DU145, 48 h, listed as (+)-UA): exceeding 3
selectivity index (SI) (DU145; IC50 PNT2 / IC50 DU145, 72 h): 1.68

Source: publication PMC12298648, “An Evaluation of the Cytotoxicity and Safety Profile of Usnic Acid for a Broad Panel of Human Cancers and Normal Cells with Respect to Its Enantiospecificity” (Molecules, 2025)
